Laboratory results from ChEMBL document CHEMBL3046545, “Simple and efficient synthetic routes to bioactive s-triazinyl dithiocarbamate derivatives” (2008).

How the values were obtained:
Format in all cases: functional
Streptococcus pyogenes = test: Antibacterial activity against Streptococcus pyogenes at […] after 24 hr by agar well diffusion assay
Bacillus subtilis = test: Antibacterial activity against Bacillus subtilis at […] after 24 hr by agar well diffusion assay
Escherichia coli = test: Antibacterial activity against Escherichia coli at […] after 24 hr by agar well diffusion assay
Aspergillus niger = test: Antifungal activity against Aspergillus niger at […] after 24 hr by agar well diffusion assay

Question: With `CCOc1ccc(NC(=S)Sc2nc(Nc3cccc(C)c3)nc(Nc3cccc(C)c3)n2)cc1` as the molecule, how does the “inhibition zone (IZ)” value (Streptococcus pyogenes) read?
Answer: 13 mm

Question: What about the “inhibition zone (IZ)” value (Bacillus subtilis) of the same molecule?
Answer: 13 mm

Question: And the “inhibition zone (IZ)” value (Escherichia coli)?
Answer: 14 mm

Question: And the “inhibition zone (IZ)” value (Aspergillus niger)?
Answer: 18 mm

Question: `Cc1cccc(Nc2nc(Nc3cccc(C)c3)nc(SC(=S)Nc3ccccc3C)n2)c1` was tested. Which “inhibition zone (IZ)” value (Streptococcus pyogenes) did it give?
Answer: 11 mm

Question: And the “inhibition zone (IZ)” value (Bacillus subtilis)?
Answer: 12 mm

Question: And the “inhibition zone (IZ)” value (Escherichia coli)?
Answer: 12 mm

Question: What about the “inhibition zone (IZ)” value (Aspergillus niger) of the same molecule?
Answer: 23 mm

Question: Which “inhibition zone (IZ)” value (Streptococcus pyogenes) does the source give for `Cc1cccc(NC(=S)Sc2nc(Nc3cccc(C)c3)nc(Nc3cccc(C)c3)n2)c1` here?
Answer: 12 mm

Question: And the “inhibition zone (IZ)” value (Bacillus subtilis)?
Answer: 14 mm

Question: What about the “inhibition zone (IZ)” value (Escherichia coli) of the same molecule?
Answer: 15 mm

Question: What about the “inhibition zone (IZ)” value (Aspergillus niger) of the same molecule?
Answer: 20 mm

Question: With `Cc1ccc(NC(=S)Sc2nc(Nc3cccc(C)c3)nc(Nc3cccc(C)c3)n2)cc1` as the molecule, how does the “inhibition zone (IZ)” value (Streptococcus pyogenes) read?
Answer: 15 mm

Question: And the “inhibition zone (IZ)” value (Bacillus subtilis)?
Answer: 15 mm

Question: What about the “inhibition zone (IZ)” value (Escherichia coli) of the same molecule?
Answer: 19 mm

Question: What about the “inhibition zone (IZ)” value (Aspergillus niger) of the same molecule?
Answer: 14 mm

Question: For `COc1ccccc1NC(=S)Sc1nc(Nc2cccc(C)c2)nc(Nc2cccc(C)c2)n1`, which “inhibition zone (IZ)” value (Streptococcus pyogenes) is on record?
Answer: 14 mm

Question: What about the “inhibition zone (IZ)” value (Bacillus subtilis) of the same molecule?
Answer: 14 mm

Question: What about the “inhibition zone (IZ)” value (Escherichia coli) of the same molecule?
Answer: 13 mm

Question: And the “inhibition zone (IZ)” value (Aspergillus niger)?
Answer: 18 mm

Question: For `COc1ccc(NC(=S)Sc2nc(Nc3cccc(C)c3)nc(Nc3cccc(C)c3)n2)cc1`, which “inhibition zone (IZ)” value (Streptococcus pyogenes) is on record?
Answer: 15 mm

Question: And the “inhibition zone (IZ)” value (Bacillus subtilis)?
Answer: 12 mm

Question: What about the “inhibition zone (IZ)” value (Escherichia coli) of the same molecule?
Answer: 12 mm

Question: And the “inhibition zone (IZ)” value (Aspergillus niger)?
Answer: 17 mm

Question: With `Cc1cccc(Nc2nc(Nc3cccc(C)c3)nc(SC(=S)Nc3ccccc3[N+](=O)[O-])n2)c1` as the molecule, how does the “inhibition zone (IZ)” value (Streptococcus pyogenes) read?
Answer: 14 mm

Question: And the “inhibition zone (IZ)” value (Bacillus subtilis)?
Answer: 15 mm

Question: And the “inhibition zone (IZ)” value (Escherichia coli)?
Answer: 15 mm

Question: And the “inhibition zone (IZ)” value (Aspergillus niger)?
Answer: 16 mm

Question: Which results are given for `Cc1cccc(Nc2nc(Nc3cccc(C)c3)nc(SC(=S)Nc3ccc([N+](=O)[O-])cc3)n2)c1`?
Answer: inhibition zone (IZ) (Streptococcus pyogenes): 15 mm; inhibition zone (IZ) (Bacillus subtilis): 13 mm; inhibition zone (IZ) (Escherichia coli): 13 mm; inhibition zone (IZ) (Aspergillus niger): 17 mm

Question: With `Cc1cccc(Nc2nc(Nc3cccc(C)c3)nc(SC(=S)NN3CCOCC3)n2)c1` as the molecule, how does the “inhibition zone (IZ)” value (Streptococcus pyogenes) read?
Answer: 13 mm

Question: What about the “inhibition zone (IZ)” value (Bacillus subtilis) of the same molecule?
Answer: 12 mm

Question: What about the “inhibition zone (IZ)” value (Escherichia coli) of the same molecule?
Answer: 12 mm

Question: And the “inhibition zone (IZ)” value (Aspergillus niger)?
Answer: 15 mm

Question: `CC(=O)N(C(C)=O)C(=S)Sc1nc(Nc2cccc(C)c2)nc(Nc2cccc(C)c2)n1` was tested. Which “inhibition zone (IZ)” value (Streptococcus pyogenes) did it give?
Answer: 11 mm

Question: And the “inhibition zone (IZ)” value (Bacillus subtilis)?
Answer: 12 mm

Question: And the “inhibition zone (IZ)” value (Escherichia coli)?
Answer: 11 mm

Question: And the “inhibition zone (IZ)” value (Aspergillus niger)?
Answer: 14 mm

Question: With `Cc1cccc(Nc2nc(SC(=S)Nc3ccccc3)nc(SC(=S)Nc3ccccc3)n2)c1` as the molecule, how does the “inhibition zone (IZ)” value (Streptococcus pyogenes) read?
Answer: 12 mm

Question: And the “inhibition zone (IZ)” value (Bacillus subtilis)?
Answer: 15 mm

Question: And the “inhibition zone (IZ)” value (Escherichia coli)?
Answer: 12 mm

Question: What about the “inhibition zone (IZ)” value (Aspergillus niger) of the same molecule?
Answer: 12 mm

Question: What does the source list for `Cc1cccc(Nc2nc(SC(=S)Nc3ccc(Cl)cc3)nc(SC(=S)Nc3ccc(Cl)cc3)n2)c1`?
Answer: inhibition zone (IZ) (Streptococcus pyogenes): 18 mm; inhibition zone (IZ) (Bacillus subtilis): 18 mm; inhibition zone (IZ) (Escherichia coli): 15 mm; inhibition zone (IZ) (Aspergillus niger): 17 mm

Question: Which “inhibition zone (IZ)” value (Streptococcus pyogenes) does the source give for `CCOc1ccc(NC(=S)Sc2nc(Nc3cccc(C)c3)nc(SC(=S)Nc3ccc(OCC)cc3)n2)cc1` here?
Answer: 15 mm

Question: And the “inhibition zone (IZ)” value (Bacillus subtilis)?
Answer: 14 mm

Question: And the “inhibition zone (IZ)” value (Escherichia coli)?
Answer: 16 mm

Question: And the “inhibition zone (IZ)” value (Aspergillus niger)?
Answer: 12 mm

Question: What does the source list for `Cc1cccc(Nc2nc(SC(=S)Nc3ccccc3C)nc(SC(=S)Nc3ccccc3C)n2)c1`?
Answer: inhibition zone (IZ) (Streptococcus pyogenes): 12 mm; inhibition zone (IZ) (Bacillus subtilis): 19 mm; inhibition zone (IZ) (Escherichia coli): 12 mm; inhibition zone (IZ) (Aspergillus niger): 13 mm

Question: With `Cc1cccc(NC(=S)Sc2nc(Nc3cccc(C)c3)nc(SC(=S)Nc3cccc(C)c3)n2)c1` as the molecule, how does the “inhibition zone (IZ)” value (Streptococcus pyogenes) read?
Answer: 12 mm

Question: And the “inhibition zone (IZ)” value (Bacillus subtilis)?
Answer: 13 mm

Question: What about the “inhibition zone (IZ)” value (Escherichia coli) of the same molecule?
Answer: 13 mm

Question: And the “inhibition zone (IZ)” value (Aspergillus niger)?
Answer: 14 mm

Question: Which results are given for `Cc1ccc(NC(=S)Sc2nc(Nc3cccc(C)c3)nc(SC(=S)Nc3ccc(C)cc3)n2)cc1`?
Answer: inhibition zone (IZ) (Streptococcus pyogenes): 13 mm; inhibition zone (IZ) (Bacillus subtilis): 19 mm; inhibition zone (IZ) (Escherichia coli): 13 mm; inhibition zone (IZ) (Aspergillus niger): 20 mm

Question: `COc1ccccc1NC(=S)Sc1nc(Nc2cccc(C)c2)nc(SC(=S)Nc2ccccc2OC)n1` was tested. Which “inhibition zone (IZ)” value (Streptococcus pyogenes) did it give?
Answer: 11 mm

Question: What about the “inhibition zone (IZ)” value (Bacillus subtilis) of the same molecule?
Answer: 15 mm

Question: What about the “inhibition zone (IZ)” value (Escherichia coli) of the same molecule?
Answer: 15 mm

Question: And the “inhibition zone (IZ)” value (Aspergillus niger)?
Answer: 14 mm

Question: Which results are given for `COc1ccc(NC(=S)Sc2nc(Nc3cccc(C)c3)nc(SC(=S)Nc3ccc(OC)cc3)n2)cc1`?
Answer: inhibition zone (IZ) (Streptococcus pyogenes): 14 mm; inhibition zone (IZ) (Bacillus subtilis): 15 mm; inhibition zone (IZ) (Escherichia coli): 15 mm; inhibition zone (IZ) (Aspergillus niger): 15 mm

Question: How did the “inhibition zone (IZ)” value (Streptococcus pyogenes) turn out when `Cc1cccc(Nc2nc(SC(=S)Nc3ccccc3[N+](=O)[O-])nc(SC(=S)Nc3ccccc3[N+](=O)[O-])n2)c1` was run?
Answer: 13 mm

Question: What about the “inhibition zone (IZ)” value (Bacillus subtilis) of the same molecule?
Answer: 14 mm

Question: What about the “inhibition zone (IZ)” value (Escherichia coli) of the same molecule?
Answer: 17 mm

Question: And the “inhibition zone (IZ)” value (Aspergillus niger)?
Answer: 19 mm

Question: How did the “inhibition zone (IZ)” value (Streptococcus pyogenes) turn out when `Cc1cccc(Nc2nc(SC(=S)Nc3ccc([N+](=O)[O-])cc3)nc(SC(=S)Nc3ccc([N+](=O)[O-])cc3)n2)c1` was run?
Answer: 17 mm

Question: What about the “inhibition zone (IZ)” value (Bacillus subtilis) of the same molecule?
Answer: 16 mm

Question: What about the “inhibition zone (IZ)” value (Escherichia coli) of the same molecule?
Answer: 15 mm

Question: And the “inhibition zone (IZ)” value (Aspergillus niger)?
Answer: 16 mm

Question: Which results are given for `Cc1cccc(Nc2nc(SC(=S)NN3CCOCC3)nc(SC(=S)NN3CCOCC3)n2)c1`?
Answer: inhibition zone (IZ) (Streptococcus pyogenes): 14 mm; inhibition zone (IZ) (Bacillus subtilis): 13 mm; inhibition zone (IZ) (Escherichia coli): 12 mm; inhibition zone (IZ) (Aspergillus niger): 13 mm

Question: How did the “inhibition zone (IZ)” value (Streptococcus pyogenes) turn out when `CCN(CC)C(=S)Sc1nc(Nc2cccc(C)c2)nc(SC(=S)N(CC)CC)n1` was run?
Answer: 12 mm

Question: What about the “inhibition zone (IZ)” value (Bacillus subtilis) of the same molecule?
Answer: 12 mm

Question: And the “inhibition zone (IZ)” value (Escherichia coli)?
Answer: 12 mm

Question: And the “inhibition zone (IZ)” value (Aspergillus niger)?
Answer: 13 mm

Question: Which results are given for `Cc1cccc(Nc2nc(Nc3cccc(C)c3)nc(SC(=S)Nc3ccccc3)n2)c1`?
Answer: inhibition zone (IZ) (Streptococcus pyogenes): 15 mm; inhibition zone (IZ) (Bacillus subtilis): 12 mm; inhibition zone (IZ) (Escherichia coli): 13 mm; inhibition zone (IZ) (Aspergillus niger): 17 mm

Question: Which results are given for `Cc1cccc(Nc2nc(Nc3cccc(C)c3)nc(SC(=S)Nc3ccc(Cl)cc3)n2)c1`?
Answer: inhibition zone (IZ) (Streptococcus pyogenes): 13 mm; inhibition zone (IZ) (Bacillus subtilis): 12 mm; inhibition zone (IZ) (Escherichia coli): 15 mm; inhibition zone (IZ) (Aspergillus niger): 16 mm

Question: For `CC1(C)S[C@@H]2[C@H](NC(=O)[C@H](N)c3ccccc3)C(=O)N2[C@H]1C(=O)O` [AMPICILLIN], which “inhibition zone (IZ)” value (Streptococcus pyogenes) is on record?
Answer: 26 mm

Question: What about the “inhibition zone (IZ)” value (Bacillus subtilis) of the same molecule?
Answer: 22 mm

Question: And the “inhibition zone (IZ)” value (Escherichia coli)?
Answer: 24 mm

Question: `O=C(N[C@H](CO)[C@H](O)c1ccc([N+](=O)[O-])cc1)C(Cl)Cl` [CHLORAMPHENICOL] was tested. Which “inhibition zone (IZ)” value (Streptococcus pyogenes) did it give?
Answer: 22 mm

Question: And the “inhibition zone (IZ)” value (Bacillus subtilis)?
Answer: 28 mm

Question: And the “inhibition zone (IZ)” value (Escherichia coli)?
Answer: 19 mm

Question: With `COC1=CC(=O)C[C@@H](C)[C@]12Oc1c(Cl)c(OC)cc(OC)c1C2=O` [GRISEOFULVIN] as the molecule, how does the “inhibition zone (IZ)” value (Aspergillus niger) read?
Answer: 20 mm

Question: What does the source list for `CCn1cc(C(=O)O)c(=O)c2cc(F)c(N3CCNCC3)cc21` [NORFLOXACIN]?
Answer: inhibition zone (IZ) (Streptococcus pyogenes): 26 mm; inhibition zone (IZ) (Bacillus subtilis): 19 mm; inhibition zone (IZ) (Escherichia coli): 25 mm
